Laboratory results: ChEMBL document CHEMBL1201862, “PubChem BioAssay data set” (2004)
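Exposure lasted 48 hours, with cells grown in 96-well plates and compounds tested at five concentrations. Here, GI50 denotes the concentration required for 50% inhibition of growth.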 Calls of active or inactive are those of the source. Rule as the data show it: active = GI50 up to about 1.1 µM and inactive = higher.

Legend:
Assay in all cases: NCI-60 cell line screen, 48 h
[1] = test system: XF498
[2] = test system: KM-20L2
[3] = test system: SNB-78
[4] = test system: HOP-18
[5] = test system: DMS-114
[6] = test system: MDA-MB-231
[7] = test system: T47D
[8] = test system: BT-549

Row | Structure (SMILES) | GI50 [1] | GI50 [2] | GI50 [3] | GI50 [4] | GI50 [5] | GI50 [6] | GI50 [7] | GI50 [8]
1 | COc1cc(/C=C2/C(=O)N(C(=O)c3ccc(Cl)cc3)N=C2C)cc(OC)c1OC | > 100 µM (inactive) | > 100 µM (inactive) | > 100 µM (inactive) | – | – | – | – | –
2 | CC1=CC2=C(C)C3(CC3)[C@@](C)(O)C(=O)C2=C1 | 0.17 µM (active) | 0.213 µM (active) | 0.274 µM (active) | 0.27 µM (active) | 0.139 µM (active) | – | – | –
3 | COc1cc(/C=C(\C#N)c2nc3ccccc3o2)ccc1O | – | – | – | – | – | 21.8 µM (inactive) | 13.3 µM (inactive) | 16.1 µM (inactive)
4 | Cc1ccc(S(=O)(=O)N2CCCN(S(=O)(=O)c3ccc(C)cc3)CC2)cc1 | – | – | – | – | – | > 100 µM (inactive) | > 100 µM (inactive) | –
5 | O=C1CCC(NC(=O)c2ccccc2)C(=O)N1 (stereo not drawn) | – | – | – | – | – | > 100 µM (inactive) | > 100 µM (inactive) | > 100 µM (inactive)
6 | COC(=O)C1C(C(=O)OC)N(Cc2ccccc2)C(=O)N1Cc1ccccc1 (stereo not drawn) | – | – | – | – | – | – | 68.9 µM (inactive) | > 100 µM (inactive)
7 | N#Cc1c(N)sc2c1-c1ccccc1OC2 | – | – | – | – | – | 46.9 µM (inactive) | – | 41 µM (inactive)
8 | C/C(=N\NC(=S)N1CCN(C2CCCCCC2)CC1)c1ccccn1 | – | 0.01 µM (active) | 2.78 µM (inactive) | 2.06 µM (inactive) | 0.01 µM (active) | 1.31 µM (inactive) | 0.01 µM (active) | 1.27 µM (inactive)
9 | Cc1c(-c2ccccc2)[nH]c2cc(Cl)ccc2c1=O | – | – | – | – | – | 70.8 µM (inactive) | > 100 µM (inactive) | > 100 µM (inactive)
10 | C/C(=N\NC(=S)N(C)CCN(C)C(=S)N/N=C(\C)c1ccccn1)c1ccccn1 | – | – | – | – | – | 0.246 µM (active) | 1.84 µM (inactive) | –
11 | CN1C(C)(C)CC(=O)C(Br)C1(C)C (stereo not drawn) | – | – | – | – | – | – | > 100 µM (inactive) | > 100 µM (inactive)
12 | CCN(CC)C(=O)CCN1CC1 | – | – | – | – | – | > 10 µM (inactive) | > 10 µM (inactive) | > 10 µM (inactive)
13 | O=C1OC2C(O)COC2(O)C1(O)Cc1c[nH]c2ccccc12.O=C1OC2C(O)COC2(OCc2c[nH]c3ccccc23)C1O (stereo not drawn) | > 100 µM (inactive) | > 100 µM (inactive) | > 100 µM (inactive) | > 100 µM (inactive) | > 100 µM (inactive) | – | – | –
14 | COC(O)C(=O)c1c2c(cc3c1CCC3)CCCC2 (stereo not drawn) | – | – | – | – | – | 9.64 µM (inactive) | 6.28 µM (inactive) | 2.39 µM (inactive)
15 | Cc1nc2ccccc2n1Cc1nnc2n1N=C(c1ccccc1)CS2 | – | – | – | – | – | 20.6 µM (inactive) | 10.6 µM (inactive) | 32.1 µM (inactive)
16 | NC12Oc3cc(O)cc(O)c3C1(c1ccc(Cl)cc1)c1c(O)cc(O)cc1O2 (stereo not drawn) | – | – | – | – | – | – | > 100 µM (inactive) | > 100 µM (inactive)
17 | COc1ccc2nc3c([N+](=O)[O-])ccc4c3c(c2c1)N=CN4CCCN(C)C | – | – | – | – | – | 1.37 µM (inactive) | 11.5 µM (inactive) | 8.22 µM (inactive)
18 | Cc1nc2c(s/c(=N\N)n2-c2ccccc2)c(=O)[nH]1 | > 100 µM (inactive) | > 100 µM (inactive) | > 100 µM (inactive) | – | > 100 µM (inactive) | – | – | –
19 | CCCN1CN(C(C(=O)N[C@@H]2C(=O)N3C(C(=O)O)=C(C)CSC23)c2ccccc2)CSC1=S (stereo partly drawn) | – | > 100 µM (inactive) | > 100 µM (inactive) | > 100 µM (inactive) | – | – | – | –
20 | CCC(C(=O)c1ccc(OC)c(OC)c1)N(C(=O)C(F)(F)F)C(C)c1ccccc1 (stereo not drawn) | – | – | – | – | – | > 100 µM (inactive) | 91 µM (inactive) | –
21 | Cc1ccc(CN2CCN(Cc3ccc(C)o3)C(C)C2)o1 (stereo not drawn) | – | – | – | – | – | > 100 µM (inactive) | > 100 µM (inactive) | > 100 µM (inactive)
22 | O=c1[nH]c(=S)[nH]n1C(=S)n1[nH]c(=S)[nH]c1=O | – | – | – | – | – | > 100 µM (inactive) | > 100 µM (inactive) | –
23 | Cc1nc2[nH]ncn2c(=O)c1CCCl | – | – | – | – | – | > 10 µM (inactive) | > 10 µM (inactive) | –
24 | CCOC(=O)/C=C/c1nc(C#N)c(N)o1 | – | – | – | – | – | > 100 µM (inactive) | – | –
25 | COc1ccc(C2C=C(c3ccc(C)cc3)N(c3ccc(OC)cc3[N+](=O)[O-])C3C(=O)OC(=O)C23)c(OC)c1 (stereo not drawn) | – | – | – | – | – | 53.2 µM (inactive) | – | 53.3 µM (inactive)
26 | COc1cc([N+](=O)[O-])ccc1NC1=CC(=O)CCC1 | – | – | – | – | – | > 100 µM (inactive) | > 100 µM (inactive) | > 100 µM (inactive)
27 | O=C(NC1C(=O)NC(CCc2ccccc2)NC1=O)OCc1ccccc1 (stereo not drawn) | – | – | – | – | – | > 100 µM (inactive) | > 100 µM (inactive) | –
28 | CN1CCN(c2ccc3c(c2)NCC(=O)N3)CC1 | – | – | – | – | – | > 100 µM (inactive) | > 100 µM (inactive) | > 100 µM (inactive)
29 | C=C1C(=O)O[C@H]2C/C(C=O)=C\[C@H]3O[C@H]3/C(COC(=O)C(C)C)=C/CC12 (stereo partly drawn) | – | – | – | – | – | 3.89 µM (inactive) | 3.54 µM (inactive) | 12.2 µM (inactive)
